Results published in ChEMBL document CHEMBL1201862, “PubChem BioAssay data set” (2004).
Active and inactive are the calls of the source.

What was measured:
[1] = system: HEK293; experiment: Fluorescence-based counterscreen for potentiators or agonists of NPY-Y2: cell-based high-throughput dose response assay to identify inhibitors of cyclic nucleotide gated ion channel (CNGC) activity. In this assay, the parental HEK293 cell line transfected with a cyclic-nucleotide gated ion channel (CNGC)-based cAMP sensor is used to measure inhibition of isoproterenol-induced CNGC activity by test compound.; format: functional; settings: Homo sapiens;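 also: stimulus is 1 µM isoproterenol at EC100 plus PDE inhibitor Ro 20-1724 at 25 µM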
[2] = biological target: T1, Neuropeptide Y receptor type 2 (Homo sapiens, UniProt P49146); experiment: Fluorescence-based cell-based high-throughput dose response assay for agonists of NPY-Y2. [Related pubchem assays: 1703 (Screening assay (CNGC inhibitors).), 1359 (Screening assay (NPY-Y2 potentiators or agonists).), 1304 (Screening assay (NPY-Y1 potentiators or agonists).), 1710 (Screening assay (NPY-Y2 agonists).), 1791 (Summary AID.)]; format: functional
T1 sequence (P49146 whole entry): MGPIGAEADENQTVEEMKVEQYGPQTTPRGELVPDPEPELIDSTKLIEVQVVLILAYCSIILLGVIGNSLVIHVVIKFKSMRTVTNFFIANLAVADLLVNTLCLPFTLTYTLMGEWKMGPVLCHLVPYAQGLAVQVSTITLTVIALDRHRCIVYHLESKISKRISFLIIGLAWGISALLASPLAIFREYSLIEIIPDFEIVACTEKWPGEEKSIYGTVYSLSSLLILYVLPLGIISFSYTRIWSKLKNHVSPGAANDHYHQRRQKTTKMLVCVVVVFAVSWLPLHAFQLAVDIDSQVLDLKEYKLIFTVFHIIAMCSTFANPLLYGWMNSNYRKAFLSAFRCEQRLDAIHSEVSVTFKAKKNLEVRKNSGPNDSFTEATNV

[3] = biological target: T2, Neuropeptide Y receptor type 1 (Homo sapiens, UniProt P25929); experiment: Fluorescence-based counterscreen for agonists of NPY-Y2: cell-based high-throughput dose response assay for agonists of NPY-Y1.; format: functional
T2 sequence (P25929 whole entry): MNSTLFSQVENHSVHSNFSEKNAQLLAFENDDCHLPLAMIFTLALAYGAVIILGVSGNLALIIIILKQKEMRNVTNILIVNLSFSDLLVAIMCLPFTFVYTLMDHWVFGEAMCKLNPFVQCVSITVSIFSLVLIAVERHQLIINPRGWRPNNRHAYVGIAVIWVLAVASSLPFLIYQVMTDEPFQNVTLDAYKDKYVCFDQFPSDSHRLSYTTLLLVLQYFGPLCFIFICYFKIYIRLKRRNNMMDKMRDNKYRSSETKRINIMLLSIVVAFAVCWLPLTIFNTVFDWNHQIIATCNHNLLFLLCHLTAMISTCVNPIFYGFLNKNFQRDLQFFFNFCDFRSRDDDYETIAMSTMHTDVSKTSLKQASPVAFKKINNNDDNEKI

[4] = biological target: Serine/threonine-protein phosphatase PP1-alpha catalytic subunit (Homo sapiens, UniProt P62136); experiment: inhibition of protein phosphatase 1 activity – biochemical, fluorescence, dose response (AID 2403);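 also: phosphatase turnover of OMFP into fluorescent 3-O-methylfluorescein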
[5] = Trypanosoma cruzi growth suppression in host cells – NIH3T3 host cells, beta-gal luminescence, confirmation (AID 2044); format: functional, cell-based;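 also: intracellular parasites grown in NIH/3T3 mouse fibroblasts as host cells; luminescent beta-galactosidase reporter signal from transgenic T. cruzi replicating inside host cells; inhibitors lower the luminescence signal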
[6] = biological target: Serine/threonine-protein phosphatase (Homo sapiens, UniProt Q9BPW0); experiment: Counterscreen for inhibitors of PP1: fluorescence-based biochemical high throughput dose response assay to identify inhibitors of Protein Phosphatase 5 (PP5). [Related pubchem assays: 2034 (Summary (PP5 inhibitors)), 1987 (PP5 inhibitors in singlate), 2235 (PP1 inhibitors in singlate)]
[7] = NIH3T3 cell viability loss – ATP luminescence, mouse fibroblasts, counter-screen, dose response (AID 2010); format: functional, cell-based;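 also: cells exposed to compound for about 90 hours before reading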
[8] = biological target: Nonstructural protein 1 (Influenza A virus, UniProt Q194T2); format: functional, Influenza A virus (A/California/07/2009(H1N1))
[9] = system: INS1; experiment: INS-1E survival protection against cytokine death – cell-based, luminescence, retest, dose response (AID 449756); format: functional; settings: Rattus norvegicus;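 also: cell death triggered by IL-1 beta plus TNF-alpha plus IFN-gamma mixture; protective hits raise ATP signal compared with cytokine alone wells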
[10] = biological target: Photoreceptor-specific nuclear receptor (Homo sapiens, UniProt Q9Y5X4); format: functional, cell-based;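 also: CHO-S cells with Gal4-NCOR and VP16-NR2E3 two-hybrid luciferase reporter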
Sequence of Photoreceptor-specific nuclear receptor (Q9Y5X4 whole entry, the tested form may be a part): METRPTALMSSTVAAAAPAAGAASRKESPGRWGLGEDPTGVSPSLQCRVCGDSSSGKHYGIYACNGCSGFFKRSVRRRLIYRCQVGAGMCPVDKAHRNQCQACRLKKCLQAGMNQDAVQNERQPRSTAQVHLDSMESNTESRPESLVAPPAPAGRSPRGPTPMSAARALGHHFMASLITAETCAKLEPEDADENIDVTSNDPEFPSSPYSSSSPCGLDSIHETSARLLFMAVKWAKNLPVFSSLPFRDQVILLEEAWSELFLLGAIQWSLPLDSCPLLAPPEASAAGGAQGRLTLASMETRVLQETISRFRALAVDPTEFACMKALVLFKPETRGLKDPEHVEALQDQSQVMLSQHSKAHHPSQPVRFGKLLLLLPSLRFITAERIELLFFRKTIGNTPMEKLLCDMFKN

Sequence of Nonstructural protein 1 (Q194T2 whole entry): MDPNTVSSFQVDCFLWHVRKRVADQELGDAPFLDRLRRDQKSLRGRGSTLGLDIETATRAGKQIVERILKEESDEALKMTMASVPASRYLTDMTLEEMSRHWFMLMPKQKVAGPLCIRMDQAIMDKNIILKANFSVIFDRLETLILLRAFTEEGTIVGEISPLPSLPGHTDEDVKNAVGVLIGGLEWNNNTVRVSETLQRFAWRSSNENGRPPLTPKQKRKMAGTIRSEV
Sequence of Serine/threonine-protein phosphatase PP1-alpha catalytic subunit (P62136 whole entry): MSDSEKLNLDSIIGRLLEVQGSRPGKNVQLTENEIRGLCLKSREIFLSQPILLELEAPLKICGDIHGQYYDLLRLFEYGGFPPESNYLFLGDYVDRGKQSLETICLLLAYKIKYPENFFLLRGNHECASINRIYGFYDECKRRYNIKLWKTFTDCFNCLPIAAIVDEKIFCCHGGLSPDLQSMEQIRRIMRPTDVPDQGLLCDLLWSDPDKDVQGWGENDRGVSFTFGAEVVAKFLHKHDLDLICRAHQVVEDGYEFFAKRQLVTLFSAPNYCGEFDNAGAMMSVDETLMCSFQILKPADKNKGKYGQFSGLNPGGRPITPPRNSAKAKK
Sequence of Serine/threonine-protein phosphatase (Q9BPW0 whole entry): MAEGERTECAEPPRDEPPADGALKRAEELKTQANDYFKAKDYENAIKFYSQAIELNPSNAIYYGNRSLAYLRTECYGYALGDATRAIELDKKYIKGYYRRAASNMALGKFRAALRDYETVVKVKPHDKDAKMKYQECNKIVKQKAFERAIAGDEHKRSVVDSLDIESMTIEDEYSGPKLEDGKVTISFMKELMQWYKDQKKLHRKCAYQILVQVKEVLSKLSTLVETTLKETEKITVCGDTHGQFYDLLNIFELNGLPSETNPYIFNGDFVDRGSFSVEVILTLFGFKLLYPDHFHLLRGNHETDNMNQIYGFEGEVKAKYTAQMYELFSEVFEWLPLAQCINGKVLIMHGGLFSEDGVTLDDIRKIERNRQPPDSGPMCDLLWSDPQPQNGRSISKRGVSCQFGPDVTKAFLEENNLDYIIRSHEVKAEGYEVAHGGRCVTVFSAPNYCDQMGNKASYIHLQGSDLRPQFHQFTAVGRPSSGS

Row | Compound | EC50 [1] | EC50 [2] | EC50 [3] | IC50 [4] | EC50 [5] | IC50 [6] | EC50 [7] | IC50 [8] | AC50 [9] | IC50 [10]
1 | O=C1C2CC=CCC2C(=O)N1c1ccc(NCCc2ccc(O)cc2)c([N+](=O)[O-])c1 (stereo not given) | 15.3 µM (not active) | > 35.4 µM (not active) | 26.5 µM (not active) | – | – | – | – | – | – | –
2 | Nc1nc(-c2ccccn2)nc(N)c1Cc1c(F)cccc1Cl | – | – | – | 7.4 µM (active) | 1.18 µM (active) | 62.2 µM (not active) | 5.25 µM (active) | 6.42 µM (active) | 5.84 µM (active) | 4.08 µM (active)
